Measured values from US20230113011A1, “METHODS OF TREATING ILLNESSES CAUSED BY CORONAVIRUS, SWINE FLU AND AVIAN FLU” (CMTx Biotech Inc., priority 2020, published 2023).

Details: in vivo

Question: Which “plasma concentrations in humans” value does the source give for `NC(=O)C1=C(O)C[C@@H]2C[C@@H]3Cc4cccc(O)c4C(=O)C3=C(O)[C@]2(O)C1=O` [CMT-3, 6-demethyl-6-deoxy-4-dedimethylaminotetracycline] here?
Answer: Its value is “about 1.0 μg/ml”.
